Where a SMILES comes first, the peptide text is derived from it. The star is where a group is joined. Cbz = O=C(OCc1ccccc1)*; CH2F = FC*

One assay concerns xenografts. The settings on record: in vivo, previous studies; cited from earlier work.
A further assay concerns cancer cells. Particulars: previous studies; cited from earlier work.
For assay [1], the system named is SNU182, SNU475 and SNU449 HCC cell lines. In words: Detection and quantitation of apoptosis in SNU449, SNU182 and SNU475 HCC cell lines. It is filed as cell-based. Particulars: for staurosporine-induced apoptosis: 1 μM, 5 hours; for cisplatin-induced apoptosis: 5 μM, 24 hours. As for the experimental part: Detection and quantitation of apoptosis: Apoptosis was quantitated by assessing nuclear changes indicative of apoptosis (i.e., chromatin condensation and nuclear fragmentation) using the DNA binding dye DAPI as described by Roberts et al. (supra). Cells were seeded in 35-mm plates at 2×10^5 cells per well. After incubation for 24 hours, the plates were washed, changed to serum free medium containing 1 μM staurosporine, and incubated for 5 hours at 37° C. Five micrograms of DAPI were added and the plates were incubated for 20 minutes at room temperature in the dark. The cells were then examined by fluorescence microscopy (Nikon Eclipse TE200; […] For each treatment, at least 300 cells in six different high-power fields were counted. […] For experiments using cisplatin, cells cultured in medium with 10% serum were treated with or without 5 μM cisplatin for 24 hours, then stained with DAPI and counted. Flow cytometry also was used to evaluate apoptosis. After a 5 hour treatment with 1 μM staurosporine as described above, cells were collected by centrifugation and washed twice in ice-cold PBS with 3% heat-inactivated FBS and 0.02% sodium azide. Cells were stained with 50 μg/ml 7-AAD for 15 minutes in the dark. The cells were resuspended in 500 μl PBS and analyzed using a FACScan analyzer (BD Bioscience). Apoptotic cells were calculated as percent of 7-AAD positive cells in 5,000 or more cells per sample. Immunoblot analysis for mitochondrial cytochrome c release: Immunoblot analysis for cytochrome c utilized cytosolic extracts prepared by selective digitonin permeabilization (Leist et al. (1998) Mol. Pharmacol. 54:789-801). Blots were probed with mouse monoclonal anti-cytochrome c antibody (BD Pharmingen) or mouse anti-β-actin antibody. For caspase 9, whole-cell lysates were prepared as described above for the sulfatase assay. Membranes were probed with mouse anti-procaspase 9 or mouse anti-β-actin antibody. Immunoblots were developed using ECL enhanced chemiluminescence reagents after incubation with horseradish peroxidase-conjugated secondary antibodies.

A further assay has as its system OV207 clones. Put plainly: Drug sensitivity of OV207 clones transfected with HSulf-1. It is filed as cell-based.
A further assay relates to SKOV3 cells. Put plainly: Analysis of apoptosis (DAPI fluorescence microscopy, DNA fragmentation, 7-AAD flow cytometry, cytochrome c) in SKOV3 cells. Set-up: apoptosis, % of cells: dose or concentration left out as unconfirmed. It counts as cell-based. How it is done: Analysis of Apoptosis: […] HSulf-1 transfected SKOV3 cells were seeded in 35-mm plates at a density of 2×10^5 cells/well. After incubation at 37° C. for 24 hours, the plates were washed and changed to serum-free medium. Staurosporine was added to a final concentration of 1 μm for 5 hours. DAPI was then added to each well. After a 20 minute incubation at room temperature in the dark, cells were examined by fluorescence microscopy (Nikon Eclipse TE200; Nikon Corp., Tokyo, Japan) using excitation and emission filters of 380 and 430 nm. An individual blinded to the experimental conditions counted at least 300 cells in six different high-power fields for each treatment. Each treatment was repeated at least three times in triplicate. […] The significance of differences between experimental variables was determined using the Student t test. DNA Fragmentation: Parental, vector and stable HSulf-1 clones 3 and 6 were treated with 1 μM staurosporine at 37° C. for 5 hours. Control or treated cells (5×10^5 cells) were harvested with trypsin and centrifuged. DNA was extracted using the Qiagen […]® kit. Aliquots containing 5 μg of DNA were resolved on a 1.5% agarose gel containing 0.5 μg/ml ethidium bromide and visualized under UV light. Flow Cytometry: After treatment with 1 μM staurosporine for 5 hours as described above, cells were washed twice in ice cold PBS containing 3% heat-inactivated fetal bovine serum and 0.02% sodium azide, stained with 7-aminoactinomycin D (7-AAD; 50 μg/ml) for 15 minutes in the dark, resuspended in 500 μl PBS, and subjected to flow cytometry on a FACScan analyzer (BD Bioscience, San Jose, Calif.). After analysis of 10,000 events, the percentage of 7-AAD positive cells was determined. Analysis of Cytosolic Cytochrome c: Parental SKOV3, stable clones of SKOV3-vector, and SKOV3-HSulf-1 clones 3 and 6 were treated with staurosporine as described above, washed in PBS, and incubated for 30 seconds in lysis buffer consisting of 210 mM D-mannitol, 70 mM sucrose, 10 mM HEPES, 5 mM sodium succinate, 0.2 mM EGTA, 0.15% BSA and 80 μg/ml digitonin. After sedimentation at 12,000×g for 1 minute, the supernatant was diluted with an equal volume of 2×sample buffer. The protein samples were quantified, resolved on a 12% SDS-PAGE gel, and subjected to immunoblot analysis as described below using anti-cytochrome c (mouse monoclonal; BD Pharmingen, San Diego, Calif.) at a dilution of 1:500.
(In flow cytometry, cells or beads pass a laser one at a time.)

The next assay concerns 012SCC cells. Put plainly: Analysis of apoptosis (DAPI, 7-AAD flow cytometry) in 012SCC cells. It counts as cell-based. The settings on record: 1 μM, 5 hours. As for the experimental part:
Analysis of Apoptosis: Apoptosis was quantitated by assessing the number of cells containing nuclear changes indicative of apoptosis (chromatin condensation and nuclear fragmentation) after staining with DAPI. HSulf-1 transfected 012SCC cells were seeded in 35-mm plates at a density of 2×10^5 cells/well. After incubation at 37° C. for 24 hours, the plates were washed and changed to serum-free medium. […] After a 5 hour incubation for staurosporine and a 24 hour incubation for cisplatin at 37° C., DAPI was added to each well at a final concentration of 5 μg/ml. After a 20 minutes incubation in the dark at 37° C., cells were examined by fluorescence microscopy (Nikon Eclipse TE200; Nikon Corp., Tokyo, Japan) using excitation and emission filters of 380 and 430 nm. An individual blinded to the experimental conditions counted at least 300 cells in six different high-power fields for each treatment. Each treatment was repeated at least three times, performed in triplicate each time. The significance of differences between experimental variables was determined using the Student t test. Detection of Apoptosis by Flow Cytometry: HSulf-1-1 or vector transfected 012SCC cells were collected by centrifugation from untreated control and staurosporine treated cells. […] The cells were then resuspended in 500 μl of PBS and analyzed by FACScan (BD Bioscience). […]

In assay [2] the test system is Hep3B and Huh-7-derived clones. Put plainly: Cisplatin-induced apoptosis in Hep3B and Huh-7 derived clones. The settings on record: hSulf1-transfected vs Vector stable clones; 5 μM cisplatin. It counts as cell-based. How it is done:
Detection and quantitation of apoptosis: Apoptosis was quantitated by assessing nuclear changes indicative of apoptosis (i.e., chromatin condensation and nuclear fragmentation) using the DNA binding dye DAPI as described by Roberts et al. (supra). Cells were seeded in 35-mm plates at 2×10^5 cells per well. After incubation for 24 hours, the plates were washed, changed to serum free medium containing 1 μM staurosporine, and incubated for 5 hours at 37° C. Five micrograms of DAPI were added and the plates were incubated for 20 minutes at room temperature in the dark. The cells were then examined by fluorescence microscopy (Nikon Eclipse TE200; […] For each treatment, at least 300 cells in six different high-power fields were counted. […] For experiments using cisplatin, cells cultured in medium with 10% serum were treated with or without 5 μM cisplatin for 24 hours, then stained with DAPI and counted.

A further assay deals with hSulf1 expression. Put plainly: Treatment with DNA methylation inhibitor, semi-quantitative RT-PCR of hSulf1. The settings on record: SNU449 and Huh-7 cell lines; increasing concentrations (0, 5, or 10 μM), 5 days. It is filed as cell-based. How it is done: Isolation of total RNA, semi-quantitative RT-PCR, and quantitative real-time PCR: Total RNA was extracted from 31 pairs of matched HCCs and adjacent benign liver tissue and the 11 HCC cell lines using the RNEASY® kit (Qiagen). cDNA synthesis was performed using SUPERSCRIPT® II RNase H reverse transcriptase (Invitrogen/Life Technologies) to transcribe 1-5 μg of total RNA primed with 1 μl of 500 μg/ml random hexamers. Primers used for semi-quantitative RT-PCR were: hSulf1-F (5′-[…]-3′; […]) and hSulf1-R (5′-[…]-3′; SEQ ID NO:14), yielding an 826 bp PCR product; GAPDH-F (5′-[…]-3′; SEQ ID NO:15) and GAPDH-R (5′-[…]-3′; SEQ ID NO:16). […] For quantitative real-time PCR analysis of HCC tumors, the hSulf1 primers were hSulf1RT-F (5′- […]-3′; SEQ ID NO:39) and hSulf1RT-R (5′-[…]-3′; SEQ ID NO:40), yielding a 379 bp PCR product. Real-time PCR was performed according to the manufacturer's recommendation in a Roche LightCycler using the following profile: 95° C. for 90 seconds followed by 34 cycles of 0 seconds at 95° C., 10 seconds at 61° C., and 20 seconds at 72° C. hSulf1 mRNA levels were normalized by comparison to 18S ribosomal RNA levels measured in the same samples. […]
Treatment with the DNA methylation inhibitor, 5-aza-2′-deoxycytidine. […] RNA (2 μg) was reverse transcribed as described above and semi-quantitative RT-PCR performed as described. […]

`COc1cc2ncnc(Nc3ccc(F)c(Cl)c3)c2cc1OCCCN1CCOCC1` [Iressa]: in the assay with xenografts, the “response of xenografts to combination” value is listed as “enhance response of xenografts to cisplatin or paclitaxel”. Also, the “sensitization to chemotherapeutic drugs in vitro” value with cancer cells is “sensitizes cancer cells to cisplatin, paclitaxel and topotecan”.
On to `COC(=O)CC(NC(=O)C(C)NC(=O)C(NC(=O)OCc1ccccc1)C(C)C)C(=O)CF` (stereo not drawn) [Z-VAD(O-Me)-fmk, N-(N^α-benzyloxycarbonylvalinylalanyl) aspartic acid (O-methyl ester) fluoromethylketone] (Cbz-Val-Ala-Asp(OMe)-CH2F; configuration not given here), for which, in assay [1] (40 μM pretreatment for 1 hour before staurosporine), the “effect on staurosporine-induced apoptosis” value is reported as “inhibited staurosporine-induced apoptosis”.
For `CN[C@@H]1C[C@H]2O[C@@](C)([C@@H]1OC)n1c3ccccc3c3c4c(c5c6ccccc6n2c5c31)C(=O)NC4` [staurosporine], in the assay on OV207 clones, the sensitivity to drug result is reported as “increased sensitivity”. For the same molecule, the induction of apoptosis result in the assay on SKOV3 cells (SKOV3 clones stably transfected with HSulf-1, 1 μM, 5 hours) was “markedly enhanced caspase-dependent apoptosis”; in the assay on SKOV3 cells (parental or vector-transfected SKOV3, 1 μM, 5 hours) it was “no induction of apoptosis”; in the assay on 012SCC cells (parental or vector-transfected cells), “little apoptosis”. Also, the staurosporine-induced apoptosis entry in assay [1] (SNU182 and SNU475 (high hSulf1-expressing)) is listed as “large increase in apoptosis”; in assay [1] (hSulf1 negative parental SNU449 and SNU449-Vector), “minimal sensitivity”; in assay [1] (three hSulf1-transfected SNU449 clones), “high sensitivity”. For the same molecule, the “apoptosis, % of cells” value in the assay on 012SCC cells (HSulf-1-transfected cells) was 40%.
Turning to `N.N.[Cl][Pt][Cl]` [cisplatin], the sensitivity to drug entry in the assay on OV207 clones was “increased sensitivity”. Moreover, the cisplatin-induced apoptosis result in assay [2] is “increasing sensitivity”; in assay [1] (SNU182 and three hSulf1-transfected stable clones), “high sensitivity”; in assay [1] (parental SNU449 and SNU449-Vector), “resistant”. In addition, the “apoptosis, % of cells” value in the assay on SKOV3 cells (HSulf-1-transfected cells, cisplatin, 24 hours) was 25-40%. Also, the induction of apoptosis entry in the assay with SKOV3 cells (parental or vector-transfected cells, cisplatin, 24 hours) was “little apoptosis”.
As to `COc1cccc(-c2cc(=O)c3ccccc3o2)c1N` [PD98059], the “sensitization to chemotherapeutic drugs in vitro” value in the assay with cancer cells was “sensitizes a variety of cell lines, including ovarian cancer cell lines, to cisplatin and paclitaxel”.
With `Nc1ncn([C@H]2C[C@H](O)[C@@H](CO)O2)c(=O)n1` [5-aza-2′-deoxycytidine], in the assay on hSulf1 expression, the hSulf1 expression result is recorded as “reactivation of hSulf1 expression”.

(Values after US20060100153A1, “HSulf-1 nucleic acids, polypeptides and methods of using” (Mayo Foundation for Medical Education and Research, a …, priority 2003, published 2006).)
